Experimental data taken from patent US20090042987A1, “TREATMENT OF NEUROPATHIC PAIN” (priority 2007, published 2009).
“Also recorded” adds a separate entry of the source.

What was measured:
Assay type in all cases: in vivo, rat
[1] = test system: drug-naïve STZ-diabetic rats; test: von Frey paw withdrawal thresholds, drug-naïve STZ-diabetic rats, Example 2
Experimental: (§1) Experimental Animals Ethical approval for this study was obtained from the Animal Experimentation Ethics Committee of The University of Queensland. Adult male Sprague-Dawley (SD) rats (222±4 g) were used for this study. Rats were housed in a temperature controlled room (21+2.0 C) with a 12/12 hour light/dark cycle. Food and water were available ad libitum. Initiation of drug administration occurred at 8-11 weeks post-STZ administration for rats in Experiment 1 (PCT-001) and at 10-12 weeks post-STZ administration for rats in Experiment 2 (PCT-007).
(§2) Test Article Tranilast was supplied by the Sponsor and stored at −4° C. until use. Gabapentin (100 mg/kg, dissolved in water for injection) was utilized as the positive control for this study.
(§3) Test Article and Vehicle Preparation Test article formulations were prepared freshly on the day of administration by weighing the appropriate amount of bulk powder and suspending it in the required volume of vehicle. Carboxymethyl cellulose ((CMC) 0.5% in water for injection) was utilized as the vehicle for this study.
(§4) Test Article Administration. […] The maximum oral gavage volume administered in this study was […]. 4.4
(§5) STZ-Diabetic Rat Model of Painful Diabetic Neuropathy. Painful diabetic neuropathy is a common long-term complication of diabetes in humans that develops as a result of a sustained biochemical nerve injury. […] Following the induction of diabetes with intravenous STZ at 70-80 mg/kg, it generally takes 6-8 wks for tactile allodynia, the defining symptom of PDN, to fully develop in both rat hindpaws.
(§6) Induction of STZ-Diabetes in Rats. On day 0, rats were anaesthetized with 3% isoflurane:97% O2 and a short polyethylene cannula (0.5 mm ID, 0.8 mm OD) was inserted into the jugular vein to facilitate the intravenous (i.v.) administration of a single dose of streptozotocin (STZ: 70-80 mg/kg). After STZ injection, the cannula was removed and the jugular vein was tied off and the wound was closed. Rats received subcutaneous benzylpenicillin (60 mg) prior to surgery to prevent infection and were kept warm during surgical recovery. Rats were housed singly prior to further experimentation and were monitored daily from the time of STZ administration with regard to general health and well-being.
(§7) Von Frey Assessment of Paw Withdrawal Thresholds. Calibrated von Frey filaments were used to determine the lowest mechanical threshold required to evoke a brisk paw withdrawal reflex in the rat hindpaws. Briefly, rats were transferred individually to wire mesh testing cages (20 cm×20 cm×20 cm) and allowed to acclimatize for approximately 10-20 min prior to von Frey testing. Commencing with the von Frey filament that produced the 6 g force, the filament was applied to the plantar surface of the hindpaw until the filament buckled slightly. Absence of a response after 3 s prompted use of the next filament of increasing weight. A withdrawal response within 3 s prompted use of the next filament of decreasing weight. Filaments used produced buckling weights of 2, 4, 6, 8, 10, 12, 14, 16, 18 and 20 g. […] Tactile allodynia is regarded as being fully developed when von Frey PWTs in the injured hindpaws are <6 g.
Restoring von-Frey PWTs in the hindpaws from <6 g to pre-STZ surgery levels (12±2 g) is the treatment goal representing full reversal of tactile allodynia. If drug treatment increases PWTs above pre-surgical baseline values (i.e. >12±2 g), such a response is classified as antinociception. Before administration of STZ, baseline von Frey measurements were assessed. Following STZ administration, baseline PWTs were assessed in the hindpaws at week 8-11 to confirm the development of diabetes-induced tactile allodynia.
Dose-Response Curve for Tranilast in Drug-Naive STZ-Diabetic Rats. […]

STZ-diabetic rats [2] = test: von Frey paw withdrawal thresholds, STZ-diabetic rats given multiple dosing regimens (washout protocol), Example 1; details: gabapentin 100 mg/kg s.c.
Experimental: as §1, §2, §3, §4, §5, §6, §7
Restoring von-Frey PWTs in the hindpaws from <6 g to pre-STZ surgery levels (12±2 g) is the treatment goal representing full reversal of tactile allodynia. If drug treatment increases PWTs above pre-surgical baseline values (i.e. >12±2 g), such a response is classified as antinociception. Before administration of STZ, baseline von Frey measurements were assessed. Following STZ administration, baseline PWTs were assessed in the hindpaws at week 8-11 to confirm the development of diabetes-induced tactile allodynia. […]

STZ-diabetic rats [3] = test: Behavioural observations / adverse effects in STZ-diabetic rats; details: gabapentin 100 mg/kg s.c., 7 consecutive twice-daily bolus doses
Excerpt: Behavioural Observations. STZ-diabetic rats were monitored for visible and audible signs of distress throughout the testing period. The visible signs of distress included behavioural changes such as complete immobility, movement with abnormal gait, agitation, aggression, wet dog shakes, excessive grooming, restlessness with constant movement, repeated sudden movements or staring.

[4] = gabapentin 100 mg/kg s.c., 7th twice-daily dose
[5] = gabapentin 100 mg/kg s.c., after 7th consecutive twice-daily dose

## NCC1(CC(=O)O)CCCCC1 [Gabapentin]
[1]; gabapentin 100 mg/kg s.c. twice-daily
  Baseline PWT thresholds assessed prior to dose 1, 3, 5 and 7: not significantly different
[1]; gabapentin 100 mg/kg s.c. twice-daily, prior to dose 1
  Mean (±SEM) von Frey Paw Withdrawal threshold assessed prior to dose: 3.7 ± 0.6 g
[1]; gabapentin 100 mg/kg s.c. twice-daily, prior to dose 3
  Mean (±SEM) von Frey Paw Withdrawal threshold assessed prior to dose: 4.0 ± 0 g
[1]; gabapentin 100 mg/kg s.c. twice-daily, prior to dose 5
  Mean (±SEM) von Frey Paw Withdrawal threshold assessed prior to dose: 4.7 ± 0.5 g
[1]; gabapentin 100 mg/kg s.c. twice-daily, prior to dose 7
  Mean (±SEM) von Frey Paw Withdrawal threshold assessed prior to dose: 4.5 ± 0.4 g
[1]; gabapentin 100 mg/kg s.c. twice-daily, time 0 h (pre-dose)
  Mean (±SEM) von Frey Paw Withdrawal threshold following the 7th consecutive dose: 4.5 ± 0.2 g
[1]; gabapentin 100 mg/kg s.c. twice-daily, time 0 h (pre-dose), listed as gabapentin
  Mean (±SEM) von Frey Paw Withdrawal threshold following the 7th consecutive dose: 4.5 (±0.2) g
[1]; gabapentin 100 mg/kg s.c. twice-daily, time 0.15 h
  Mean (±SEM) von Frey Paw Withdrawal threshold following the 7th consecutive dose: 5.75 ± 0.2 g
[1]; gabapentin 100 mg/kg s.c. twice-daily, time 0.5 h
  Mean (±SEM) von Frey Paw Withdrawal threshold following the 7th consecutive dose: 6.25 ± 0.2 g
[1]; gabapentin 100 mg/kg s.c. twice-daily, time 0.75 h
  Mean (±SEM) von Frey Paw Withdrawal threshold following the 7th consecutive dose: 7.5 ± 0.6 g
[1]; gabapentin 100 mg/kg s.c. twice-daily, time 1 h
  Mean (±SEM) von Frey Paw Withdrawal threshold following the 7th consecutive dose: 8.5 ± 0.5 g
[1]; gabapentin 100 mg/kg s.c. twice-daily, time 1.25 h
  Mean (±SEM) von Frey Paw Withdrawal threshold following the 7th consecutive dose: 9.0 ± 1.0 g
[1]; gabapentin 100 mg/kg s.c. twice-daily, time 1.25 h, listed as gabapentin
  Mean (±SEM) von Frey Paw Withdrawal threshold following the 7th consecutive dose: 9.0 (±1.0) g
[1]; gabapentin 100 mg/kg s.c. twice-daily, time 1.5 h
  Mean (±SEM) von Frey Paw Withdrawal threshold following the 7th consecutive dose: 9.0 ± 0.7 g
[1]; gabapentin 100 mg/kg s.c. twice-daily, time 2 h
  Mean (±SEM) von Frey Paw Withdrawal threshold following the 7th consecutive dose: 7.0 ± 0.4 g
[1]; gabapentin 100 mg/kg s.c. twice-daily, time 3 h
  Mean (±SEM) von Frey Paw Withdrawal threshold following the 7th consecutive dose: 6.5 ± 0.3 g
[1]; gabapentin 100 mg/kg s.c., 7 consecutive twice-daily doses
  Relief of tactile allodynia in the hindpaws: significant relief of tactile allodynia
[1]; [4]
  Mean duration of action: > 3 h
  Time of peak anti-allodynia post-dosing: 1 to 1.5 h
[1]; [5]
  Mean (±SEM) AUC (area under the normalized PWT versus time curve): 8.3 ± 0.4
  Mean (±SEM) Peak response (PWT): 9.0 ± 1.0
[1]; gabapentin 100 mg/kg s.c., after 7th consecutive twice-daily dose, 100% MPR = full reversal of tactile allodynia
  Mean (±SEM) % MPR at peak: 75.8 ± 17.2%
[1]; gabapentin s.c. 100 mg/kg, 7th consecutive twice-daily dose
  % MPR at the time of peak effect compared with vehicle: significantly greater than that for vehicle
STZ-diabetic rats [2]; 7 consecutive twice-daily doses, multiple dosing regimens
  Relief of tactile (mechanical) allodynia in the hindpaws: significant relief of tactile (mechanical) allodynia
STZ-diabetic rats [2]; 7th twice-daily dose, 1 h post-dosing
  Mean (±SEM) PWT at the mean time of peak response: 11.0 (±1.0) g
STZ-diabetic rats [2]; 7th twice-daily dose, multiple dosing regimens
  Time of peak anti-allodynia post-dosing: 0.75 to 1.25 h
STZ-diabetic rats [2]; 7th twice-daily dose, pre-dose
  Mean (±SEM) PWT pre-dose: 4.5 (±0.5) g
STZ-diabetic rats [3]
  Adverse (behavioural) effects: no discernible adverse effects; also recorded: did not produce discernible adverse behavioural effects
